Test results as given in PubChem BioAssay AID2060619 (Molecular Pharmacology Branch, DTP, NCI, 2025).

System: 323965-272-R-J2-PDC complex spheroid viability
Experiment: Anticancer human tumor 323965-272-R-J2-PDC patient-derived pancreatic carcinoma cell line growth inhibition [CLK]
Settings: for IC50: curve of first compound; for viability, T/C: stronger effect = lower value
In short: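 Patient-derived tumor cells grown as complex spheroids with HUVEC endothelial cells and mesenchymal stem cells, treated with drug combinations. Concentrations descend in half-log steps from near clinical Cmax, or from 10 microM if Cmax unknown.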

[1] = second compound 0.0316 µM, first compound 0.0316 µM
[2] = second compound 0.0316 µM, first compound 0.1 µM
[3] = second compound 0.0316 µM, first compound 0.316 µM
[4] = second compound 0.0316 µM, first compound 1 µM
[5] = second compound 0.1 µM, first compound 0.0316 µM
[6] = second compound 0.1 µM, first compound 0.1 µM
[7] = second compound 0.1 µM, first compound 0.316 µM
[8] = second compound 0.1 µM, first compound 1 µM
[9] = second compound 0.316 µM, first compound 0.0316 µM
[10] = second compound 0.316 µM, first compound 0.1 µM
[11] = second compound 0.316 µM, first compound 0.316 µM
[12] = second compound 0.316 µM, first compound 1 µM
[13] = second compound 1 µM, first compound 0.0316 µM
[14] = second compound 1 µM, first compound 0.1 µM
[15] = second compound 1 µM, first compound 0.316 µM
[16] = second compound 1 µM, first compound 1 µM
[17] = second compound 3.16 µM, first compound 0.0316 µM
[18] = second compound 3.16 µM, first compound 0.1 µM
[19] = second compound 3.16 µM, first compound 0.316 µM
[20] = second compound 3.16 µM, first compound 1 µM
[21] = second compound 10 µM, first compound 0.0316 µM
[22] = second compound 10 µM, first compound 0.1 µM
[23] = second compound 10 µM, first compound 0.316 µM
[24] = second compound 10 µM, first compound 1 µM
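Further: spheroids exposed to agents for seven days before readout.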
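Wherever viability, T/C is given: percent of DMSO vehicle control wells so 100% = untreated growth.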

Work on `CCc1c2c(nc3ccc(O)cc13)-c1cc3c(c(=O)n1C2)COC(=O)[C@]3(O)CC` + CN1CCN(c2cc(C(=O)Nc3cc4cc(-c5cnn(C)c5)ccc4cn3)ccn2)CC1 yielded an IC50 (second compound 0.0316 µM) of 7.63 nM, an IC50 (second compound 0.1 µM) of under 3.16 nM and an IC50 (second compound 0.316 µM) of under 3.16 nM. The IC50 (second compound 1 µM) was under 3.16 nM, the IC50 (second compound 3.16 µM) was under 3.16 nM and the IC50 (second compound 10 µM) was under 3.16 nM. The viability, T/C (second compound 0.0316 µM, first compound 0.00316 µM) was 77.2%, the viability, T/C (second compound 0.0316 µM, first compound 0.01 µM) was 41.7% and the viability, T/C [1] was 28.6%. The viability, T/C [2] was 27.2%, the viability, T/C [3] was 25.7% and the viability, T/C [4] was 24.1%. The viability, T/C (second compound 0.1 µM, first compound 0.00316 µM) was 42.6%, the viability, T/C (second compound 0.1 µM, first compound 0.01 µM) was 33.3% and the viability, T/C [5] was 26%. For the same molecule, the viability, T/C [6] was 24.7%, the viability, T/C [7] was 20.1% and the viability, T/C [8] was 19.7%. For the same molecule, the viability, T/C (second compound 0.316 µM, first compound 0.00316 µM) was 22.2%, the viability, T/C (second compound 0.316 µM, first compound 0.01 µM) was 23.1% and the viability, T/C [9] was 18.6%. For the same molecule, the viability, T/C [10] was 20.3%, the viability, T/C [11] was 19.1% and the viability, T/C [12] was 6.86%. For the same molecule, the viability, T/C (second compound 1 µM, first compound 0.00316 µM) was 3.79%, the viability, T/C (second compound 1 µM, first compound 0.01 µM) was 3.36% and the viability, T/C [13] was 2.56%. The viability, T/C [14] was 2.23%, the viability, T/C [15] was 1.14% and the viability, T/C [16] was 0.61%. For the same molecule, the viability, T/C (second compound 3.16 µM, first compound 0.00316 µM) was 4.21%, the viability, T/C (second compound 3.16 µM, first compound 0.01 µM) was 3.48% and the viability, T/C [17] was 3.05%. It also gave a viability, T/C [18] of 1.79%, a viability, T/C [19] of 1.1% and a viability, T/C [20] of 0.61%. The viability, T/C (second compound 10 µM, first compound 0.00316 µM) was 4.27%, the viability, T/C (second compound 10 µM, first compound 0.01 µM) was 6.63% and the viability, T/C [21] was 2.33%. For the same molecule, the viability, T/C [22] was 1.69%, the viability, T/C [23] was 0.96% and the viability, T/C [24] was 0.59%.
With `CC(=O)O[C@H]1C(=O)[C@@]2(C)[C@H]([C@H](OC(=O)c3ccccc3)[C@]3(O)C[C@H](OC(=O)[C@H](O)[C@@H](NC(=O)c4ccccc4)c4ccccc4)C(C)=C1C3(C)C)[C@]1(OC(C)=O)CO[C@@H]1C[C@@H]2O` + CN1CCN(c2cc(C(=O)Nc3cc4cc(-c5cnn(C)c5)ccc4cn3)ccn2)CC1 the IC50 (second compound 0.0316 µM) was under 31.6 nM, the IC50 (second compound 0.1 µM) was under 31.6 nM and the IC50 (second compound 0.316 µM) was under 31.6 nM. It also gave an IC50 (second compound 1 µM) of under 31.6 nM, an IC50 (second compound 3.16 µM) of under 31.6 nM and an IC50 (second compound 10 µM) of under 31.6 nM. It also gave a viability, T/C [1] of 33.2%, a viability, T/C [2] of 34.3% and a viability, T/C [3] of 31.7%. The viability, T/C [4] was 33%, the viability, T/C (second compound 0.0316 µM, first compound 3.16 µM) was 34.8% and the viability, T/C (second compound 0.0316 µM, first compound 10 µM) was 30.4%. The viability, T/C [5] was 28.3%, the viability, T/C [6] was 28.1% and the viability, T/C [7] was 24.7%. For the same molecule, the viability, T/C [8] was 25.9%, the viability, T/C (second compound 0.1 µM, first compound 3.16 µM) was 26.7% and the viability, T/C (second compound 0.1 µM, first compound 10 µM) was 28.5%. It also gave a viability, T/C [9] of 19.8%, a viability, T/C [10] of 19.3% and a viability, T/C [11] of 19%. For the same molecule, the viability, T/C [12] was 19.5%, the viability, T/C (second compound 0.316 µM, first compound 3.16 µM) was 17.2% and the viability, T/C (second compound 0.316 µM, first compound 10 µM) was 16.9%. The viability, T/C [13] was 3.79%, the viability, T/C [14] was 3.19% and the viability, T/C [15] was 3.35%. It also gave a viability, T/C [16] of 2.94%, a viability, T/C (second compound 1 µM, first compound 3.16 µM) of 3.34% and a viability, T/C (second compound 1 µM, first compound 10 µM) of 3.64%. It also gave a viability, T/C [17] of 3.67%, a viability, T/C [18] of 6.44% and a viability, T/C [19] of 4.39%. For the same molecule, the viability, T/C [20] was 4.7%, the viability, T/C (second compound 3.16 µM, first compound 3.16 µM) was 3.88% and the viability, T/C (second compound 3.16 µM, first compound 10 µM) was 5.16%. The viability, T/C [21] was 4.53%, the viability, T/C [22] was 4.6% and the viability, T/C [23] was 4.22%. It also gave a viability, T/C [24] of 3.5%, a viability, T/C (second compound 10 µM, first compound 3.16 µM) of 3.95% and a viability, T/C (second compound 10 µM, first compound 10 µM) of 3.79%.
